Laboratory results: US20180171291A1, “DERIVATION OF ENDOTHELIAL CELLS FROM MAMMALIAN PLUIRPOTENT STEM CELLS” (THE JOHNS HOPKINS UNIVERSITY, priority 2012, published 2018)

System: hPSCs
Test: sequential differentiation of hPSCs into endothelial cells on collagen IV, EC marker expression by flow cytometry / immunofluorescence
Format: cell-based, human
Experimental: In the inventive method, hPSCs were cultured at a concentration of 1.25×10^4 per cm^2 on collagen IV plates for 12 days. In the “direct” method, the cells were treated with VEGF for the entire time. With the “sequential” method, the cells were supplemented with 10% serum and were not treated with VEGF until day 6. See FIG. 1 for a comparison of the protocols.
In our sequential method, hPSCs were cultured on collagen IV plates in media supplemented with 10% serum. After 6 days in culture, cells were strained and re-cultured in media supplemented with 50 ng/ml vascular endothelial growth factor (VEGF). Cells which were differentiated via direct means were cultured in the VEGF-supplemented media for all 12 days. EC markers were examined via immunofluorescence microscopy and flow cytometry. We tested hESC line, H9, as well as hiPSC line, MR31, which was derived from normal, fetal fibroblasts using three factors, Oct-4, Sox2, Klf4 (8, 9).
However, because sequentially-derived cells were only ˜5% VEcad+, we sought to improve upon the differentiation efficiency via biochemical means. To this end, we studied the addition of a TGFβ inhibitor, SB431542 (10) as well as angiogenic growth factors, bone morphogenetic protein-4 (BMP4) and Indian Hedgehog (lhh). For our TGFβ inhibitor studies, we examined the effects of SB431542 in the second half of differentiation plus high (50 ng/ml) or low (1 ng/ml) VEGF. […] Remarkably, VEcad expression increased regardless of high or low VEGF concentrations. […] Cells expressed approximately 1% Tra-1-60 indicating they were fully differentiated.

[1] = added in the second half of sequential differentiation plus VEGF, 12 days in culture

Row | Molecule | Expression of CD31 [1] | Expression of KDR [1] | expression of mature EC marker, VEcad (added in the second half of sequential differentiation plus high (50 ng/ml) or low (1 ng/ml) VEGF, 12 days in culture) | endothelial differentiation capacity (compared with levels seen with SB431542 supplementation)
1 | NC(=O)c1ccc(-c2nc(-c3ccc4c(c3)OCO4)c(-c3ccccn3)[nH]2)cc1 [SB431542] | increased | increased | dramatic increase | –
2 | BMP4: angiogenic growth factor, bone morphogenetic protein-4 (protein, UniProt P12644 293-408, looked up) Bone morphogenetic protein 4: SPKHHSQRARKKNKNCRRHSLYVDFSDVGWNDWIVAPPGYQAFYCHGDCPFPLADHLNSTNHAIVQTLVNSVNSSIPKACCVPTELSAISMLYLDEYDKVVLKNYQEMVVEGCGCR | – | – | – | not able to augment
